Experimental data taken from PubChem BioAssay AID2060597 (Global Health Medicines R&D, GSK, 2025).
pIC50: −log10 of the molar value. The source made the active and inactive calls.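 How the source made its calls: active means blocking male or female gamete formation with potency of about 10 µM or stronger; inactive means the rest.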

Tested on: not listed separately
Experiment: transmission-blocking activity on Pf gametocytes – dual gamete formation, strain 3D7A, dose response (AID 2060597)
Conditions: P. falciparum 3D7A gametocytes, male exflagellation, 48 h

Row | SMILES | outcome
1 | O=C(NCCCN1CCc2ccccc21)c1ccc2c(=O)n(Cc3ccccn3)cnc2c1 | active

Tested on: P. falciparum 3D7A gametocytes, male exflagellation, 48 h
Experiment: as above
Conditions: not given

Row | SMILES | pIC50
2 | CC(C)Oc1ccc(-c2nnc(Oc3cccc4c3CCN(CCC(N)=O)CC4)s2)cc1C#N | < 5.00
3 | Cc1nn(C2CCS(=O)(=O)C2)c(C)c1CN(C)C(=O)CN1C(=O)NC2(CCCCC2C)C1=O (stereo not drawn) | < 5.00
4 | Cc1ccc2nc(CCNC(=O)CCS(=O)(=O)c3ccc4c(c3)CC(=O)N4C)[nH]c2c1 | < 5.00
5 | O=C(Nc1cccnc1)C1CCN(c2ccc(-c3ccco3)nn2)CC1 | < 5.00
6 | Cc1cc(Cl)ccc1OCC(=O)N1CCc2c(cnc(C)c2CNC(=O)c2ccc(=O)[nH]n2)C1 | < 5.00
7 | CCN(CC)c1ccc(C(=O)COc2ccc3c(c2)CCNCC3)cc1 | < 5.00
8 | COc1ccc2oc(C(=O)NC3CCC(Oc4ncccn4)CC3)cc2c1 (stereo not drawn) | < 5.00
9 | CN(C(=O)C[C@@H]1CCN(C(=O)C2CC2)C1)c1ccc(-c2ccc(C#N)cc2)cc1 | < 5.00
10 | Cc1cccc(-c2nn(Cc3ccc(C(=O)NCCCO)cc3)c(=O)cc2N2CCCC(CO)C2)c1 (stereo not drawn) | < 5.00
11 | O=C(COc1ccc(Br)cc1F)N1CCN(c2cnccn2)CC1 | < 5.00
12 | N#Cc1cccc(NC(=O)CNc2ccccc2C(=O)NC2CC2)c1 | < 5.00
13 | Cc1cc(-c2cnc(N3CCn4c(nnc4C4CC4)C3)nc2-c2ccncc2)on1 | < 5.00
14 | O=C(c1cc2ccccc2[nH]1)N1CCC2(CC(Nc3ccncn3)C2)C1 (stereo not drawn) | < 5.00
15 | COc1ccc(-c2ccc(CNC(=O)c3cc(C(=O)NC(C)C)ccc3Cl)cc2)cn1 | < 5.00
16 | NC(=O)CC1CCN(C(=O)c2sc3sccc3c2Cl)CC1 | < 5.00

The remaining lines, values ahead:

Row | pIC50 | SMILES
17 | < 5.00 | Cn1cccc1C1CCCN1CC(=O)Nc1ccc(S(=O)(=O)N2CCOCC2)cc1 (stereo not drawn)
18 | < 5.00 | COc1ccc(NC(=O)c2ccc3c(=O)n(Cc4ccccn4)cnc3c2)cc1N1CCN(C)CC1
19 | < 5.00 | COc1ccc(N2CCN(C(=O)c3csc(Nc4ccccc4S(C)(=O)=O)n3)CC2)nc1
20 | < 5.00 | O=C(Nc1nnc(-c2ccccc2)s1)N1CCCN(c2ncccn2)CC1
21 | < 5.00 | CCCOc1cncc(S(=O)(=O)c2ccc3c(c2)CCN(C2CCC2)CC3)c1
22 | < 5.00 | N#Cc1c(N)n[nH]c1CCCNC(=O)c1ccc(Cl)c(S(=O)(=O)N2CCCC2)c1
23 | < 5.30 | O=C(/C=C/c1n[nH]c2ccccc12)N1CCN(c2cnccn2)CC1
24 | < 5.00 | O=C1CSc2ccc(C(=O)Nc3ccc(-c4nnc5n4CCCCC5)cc3)cc2N1
25 | < 5.00 | CCN(C(=O)C=Cc1ccc(S(=O)(=O)N2CCc3ccccc32)cc1)C1CCS(=O)(=O)C1 (stereo not drawn)
26 | < 5.00 | O=C(CCCc1ncc(-c2ccccc2)o1)N1CCOC2CCCC21 (stereo not drawn)
27 | < 5.00 | COc1ccc(C(=O)N2CCN(c3ccc(-n4cccn4)nn3)CC2)cc1OC
28 | < 5.00 | O=C(CCN=C1NS(=O)(=O)c2ccccc21)Nc1ccc(S(=O)(=O)N2CCCC2)cc1
29 | < 5.00 | O=C(CCn1nnc2cc(S(=O)(=O)N3CCCC3)ccc21)N1CCN(c2ccccn2)CC1
30 | < 5.00 | O=C1CCCN1c1ccc(S(=O)(=O)N2CCN(S(=O)(=O)c3ccccc3)CC2)cc1
31 | < 5.00 | O=C(/C=C/c1n[nH]c2ccccc12)Nc1ccc(C(=O)NCCN2CCOCC2)cc1
32 | < 5.00 | O=C(CCCc1c[nH]c2ccccc12)N1CCN(c2ccc(N3CCOCC3)nn2)CC1
33 | < 5.00 | O=C(Nc1ccc(N2CCCC2)nc1)N1CCN(c2cnccn2)CC1
